Measurements as given in US20250261660A1, “FORMULATIONS AND METHODS FOR USE IN OXIDATION TREATMENT APPLICATIONS” (priority 2022, published 2025).

Test system: microbial control in water
Test: Microbial control in water at slightly alkaline pH, comparison of oxidants
Assay type: cell-based
From the text: (§1) In some embodiments, microbial control in water at slightly alkaline pH was compared between peracetate oxidant, chlorine bleach, peracetic acid and chlorine dioxide. Alkaline pH is encountered in a variety of applications where microbial control and sanitization is needed, including pulp and paper processing.
as §1, with “water treatment” for “pulp”, “chill tanks in poultry processing, a type of food” for “paper”

Row | Compound | performance as antimicrobial disinfectant
1 | OCl [chlorine bleach, hypochlorite] | lowest performance
2 | [O][Cl+][O-] [chlorine dioxide] | performed well
3 | CC(=O)OO [peracetic acid] | lowest performance
